Measurements: ChEMBL document CHEMBL3588832, “The biology and synthesis of α-hydroxytropolones” (Medchemcomm, 2014)
≈ marks a conversion by molar mass, not a printed value. One block for each compound: values may come before it.

Legend:
[1] = Inhibition of inositol monophosphatase (unknown origin); design: species or system Homo sapiens
[2] = Inhibition of HIV reverse transcriptase RNase H; design: species or system Human immunodeficiency virus
[3] = Inhibition of HIV integrase 3' processing activity; design: species or system Human immunodeficiency virus
[4] = Inhibition of HIV reverse transcriptase polymerase; design: species or system Human immunodeficiency virus
[5] = Inhibition of HIV integrase strand transfer activity; design: species or system Human immunodeficiency virus
Plasmodium falciparum [6] = experiment: Antimalarial activity against chloroquine-resistant Plasmodium falciparum K1; type: functional, organism-based
B16 [7] = experiment: Cytotoxicity against mouse B16 cells; type: functional, cell-based
Plasmodium falciparum [8] = experiment: Antimalarial activity against Plasmodium falciparum infected in mouse; type: functional
MRC5 = experiment: Cytotoxicity against human MRC5 cells; type: functional, cell-based
Plasmodium falciparum [9] = experiment: Antimalarial activity against Plasmodium falciparum FCR-3/Gambia; type: functional, organism-based
[10] = Inhibition of HIV1 reverse transcriptase RNase H; design: species or system Human immunodeficiency virus 1
[11] = Inhibition of hepatitis B virus genotype H RNaseH
Escherichia coli [12] = experiment: Inhibition of Escherichia coli W677/JR76.2 2'-O-adenylyltransferase at 7.3 uM using aminoglycoside and [14C]ATP incubated for 15 mins by liquid scintillation counting based radiochemical assay
[13] = Toxicity in mouse assessed as induction of mortality after 48 hrs; type: organism-based; conditions: in vivo
Escherichia coli [14] = experiment: Inhibition of Escherichia coli W677/JR76.2 2'-O-adenylyltransferase at 730 uM using aminoglycoside and [14C]ATP incubated for 15 mins by liquid scintillation counting based radiochemical assay
[15] = Antifungal activity against Stereum sanguinolentum; type: functional
[16] = Toxicity in mouse assessed as induction of mortality after 72 hrs; type: organism-based; conditions: in vivo
[17] = Antifungal activity against Polyporus versicolor; type: functional
Poria = experiment: Antifungal activity against Poria monticola; type: functional
[18] = Inhibition of human ribonuclease H
[19] = Inhibition of hepatitis B virus genotype D RNaseH
Coniophora puteana = experiment: Antifungal activity against Coniophora puteana; type: functional
[20] = Inhibition of XMRV RNaseH; design: species or system Xenotropic MuLV-related virus
[21] = Antifungal activity against Phellinus weirii; type: functional
Hepatitis B virus [22] = experiment: Antiviral activity against HBV assessed as inhibition of viral replication in cell based assay; type: functional, organism-based
[23] = Inhibition of Escherichia coli ribonuclease H
[24] = Inhibition of HIV2 reverse transcriptase RNase H; design: species or system Human immunodeficiency virus 2
[25] = Inhibition of phosphotidylcholine-preferring phospholipase C (unknown origin) at pH 9.5; design: species or system Homo sapiens
[26] = Inhibition of phosphotidylcholine-preferring phospholipase C (unknown origin) at pH 7.3; design: species or system Homo sapiens
[27] = Inhibition of alkaline phosphatase (unknown origin); design: species or system Homo sapiens
[28] = molecular target: T1, Dopamine beta-hydroxylase (Homo sapiens, UniProt P09172); experiment: Inhibition of dopamine beta-oxygenase (unknown origin)
T1 sequence (P09172 whole entry): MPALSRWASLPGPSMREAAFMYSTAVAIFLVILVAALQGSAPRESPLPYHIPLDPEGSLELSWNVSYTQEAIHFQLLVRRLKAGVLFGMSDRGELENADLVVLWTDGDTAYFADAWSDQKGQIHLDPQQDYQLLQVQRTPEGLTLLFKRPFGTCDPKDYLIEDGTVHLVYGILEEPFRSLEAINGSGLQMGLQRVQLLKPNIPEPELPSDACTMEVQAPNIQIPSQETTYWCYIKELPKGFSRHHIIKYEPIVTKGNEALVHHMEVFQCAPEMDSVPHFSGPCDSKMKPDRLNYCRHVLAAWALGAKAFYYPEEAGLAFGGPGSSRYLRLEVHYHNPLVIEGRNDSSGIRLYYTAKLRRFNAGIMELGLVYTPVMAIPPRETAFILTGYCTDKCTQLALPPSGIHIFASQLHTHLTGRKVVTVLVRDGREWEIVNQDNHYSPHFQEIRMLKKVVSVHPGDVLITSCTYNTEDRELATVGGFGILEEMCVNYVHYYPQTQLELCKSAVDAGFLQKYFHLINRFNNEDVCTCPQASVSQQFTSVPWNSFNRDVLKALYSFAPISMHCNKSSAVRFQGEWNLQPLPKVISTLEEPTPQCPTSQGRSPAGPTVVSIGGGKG

Staphylococcus aureus = experiment: Antibacterial activity against Staphylococcus aureus; type: functional
Escherichia coli [29] = experiment: Inhibition of Escherichia coli W677/JR76.2 2'-O-adenylyltransferase at 550 uM using aminoglycoside and [14C]ATP incubated for 15 mins by liquid scintillation counting based radiochemical assay
Escherichia coli [30] = experiment: Inhibition of Escherichia coli W677/JR76.2 2'-O-adenylyltransferase at 5.5 uM using aminoglycoside and [14C]ATP incubated for 15 mins by liquid scintillation counting based radiochemical assay
Aspergillus fumigatus = experiment: Antifungal activity against Aspergillus fumigatus IAM2350; type: functional
Pseudomonas aeruginosa = experiment: Antibacterial activity against Pseudomonas aeruginosa; type: functional
Escherichia coli [31] = experiment: Antibacterial activity against Escherichia coli NIHJ; type: functional
Micrococcus luteus = experiment: Antibacterial activity against Micrococcus luteus; type: functional
Escherichia coli [32] = experiment: Inhibition of Escherichia coli W677/JR76.2 2'-O-adenylyltransferase at 55 uM using aminoglycoside and [14C]ATP incubated for 15 mins by liquid scintillation counting based radiochemical assay
Klebsiella pneumoniae = experiment: Antibacterial activity against Klebsiella pneumoniae; type: functional
B16 [33] = experiment: Antitumor activity against mouse B16 cells implanted in mouse assessed as mouse survival at 1 mg/kg/day (reference value: 16 days); type: functional
B16 [34] = experiment: Inhibition of RNA synthesis in mouse B16 cells; type: functional, cell-based
Escherichia coli [35] = experiment: Inhibition of Escherichia coli W677/JR76.2 2'-O-adenylyltransferase at 6.5 uM using aminoglycoside and [14C]ATP incubated for 15 mins by liquid scintillation counting based radiochemical assay
B16 [36] = experiment: Inhibition of DNA synthesis in mouse B16 cells; type: functional, cell-based
B16 [37] = experiment: Antitumor activity against mouse B16 cells implanted in mouse assessed as mouse survival at 2.5 mg/kg/day (reference value: 16 days); type: functional
[38] = tested on: Human immunodeficiency virus 1; experiment: Antiviral activity against HIV1 assessed as inhibition of viral replication in cell based assay; type: functional, organism-based
B16 [39] = experiment: Inhibition of protein synthesis in mouse B16 cells; type: functional, cell-based
Escherichia coli [40] = experiment: Inhibition of Escherichia coli W677/JR76.2 2'-O-adenylyltransferase at 650 uM using aminoglycoside and [14C]ATP incubated for 15 mins by liquid scintillation counting based radiochemical assay
B16 [41] = experiment: Antitumor activity against mouse B16 cells implanted in mouse assessed as mouse survival at 1.3 mg/kg/day (reference value: 16 days); type: functional
Hepatitis B virus [42] = experiment: Antiviral activity against HBV assessed as inhibition of viral replication at 10 uM in cell based assay; type: functional

- IC50 [1]: 4 µM
SMILES: N#Cc1ccc(-c2ccc(O)c(=O)c(O)c2O)cc1

- IC50 [2]: 12 µM
- IC50 [3]: 0.6 µM
- IC50 [4]: 0.6 µM
- IC50 [5]: 1.2 µM
SMILES: O=Cc1ccc(-c2ccc(O)c(=O)c(O)c2O)cc1

SMILES: COc1cc(C(=O)O)cc(O)c(OC)c1=O
- IC50 (Plasmodium falciparum [6]): 3.7 µM

SMILES: O=c1ccc(O)ccc1O
- IC50 (B16 [7]): 13 µM

SMILES: O=C(O)c1cc(O)c(O)c(=O)c(O)c1
- ED50 (Plasmodium falciparum [8]): < 2 mg/kg
- IC50 (Plasmodium falciparum [6]): 0.05 µM
- IC50 (MRC5): 360 µM
- IC50 (Plasmodium falciparum [9]): 0.05 µM
- IC50 [1]: 10 µM

SMILES: C[C@H]1[C@H](OC(=O)CCC(=O)O)O[C@@H]2O[C@@]3(C)CC[C@H]4[C@H](C)CC[C@@H]1[C@@]24OO3 [ARTESUNATE]
- ED50 (Plasmodium falciparum [8]): 1.7 mg/kg
- IC50 (Plasmodium falciparum [6]): 0.01 µM
- IC50 (MRC5): 36 µM
- IC50 (Plasmodium falciparum [9]): 0.0025 µM

SMILES: O=c1c(O)ccc(O)cc1O
- IC50 (B16 [7]): 2.5 µM

SMILES: CC(C)c1ccc(O)c(=O)c(O)c1 [BETA-THUJAPLICINOL]
- IC50 [10]: 0.2 µM
- IC50 [11]: 2.3 µM
- IC50 [2]: 0.2 µM
- inhibition (Escherichia coli [12]): 31%
- LD50 at 48 h [13]: 175 mg/kg
- inhibition (Escherichia coli [14]): 100%
- MIC [15]: 330 µM (≈ 59.5 µg/mL)
- LD50 at 72 h [16]: 155 mg/kg
- MIC [17]: 800 µM (≈ 144 µg/mL)
- MIC (Poria): 10 µM (≈ 1.8 µg/mL)
- IC50 [18]: 5.7 µM
- IC50 [19]: 5.9 µM
- MIC (Coniophora puteana): 10 µM (≈ 1.8 µg/mL)
- IC50 [20]: 1.4 µM
- MIC [21]: 100 µM (≈ 18 µg/mL)
- EC50 (Hepatitis B virus [22]): 5 µM
- IC50 [23]: 50 µM
- IC50 [24]: 0.8 µM

- IC50 [10]: 50 µM
- IC50 [18]: 12 µM
- IC50 [23]: > 100 µM
- IC50 [24]: 33 µM
SMILES: CC(C)c1ccccc(=O)c1O [ALPHA-THUJAPLICIN]

- Ki [25]: 53 µM
- Ki [26]: 388 µM
SMILES: O=C1C=CCN(O)C(=O)N1O

- IC50 [2]: 1.3 µM
- IC50 [3]: 0.7 µM
- IC50 [4]: 2.3 µM
- IC50 [5]: 0.8 µM
SMILES: O=c1c(O)c(O)ccc(-c2cccc([N+](=O)[O-])c2)c1O

SMILES: O=c1cccccc1O [TROPOLONE]
- IC50 [10]: > 100 µM
- IC50 [27]: > 1000 µM
- IC50 (Plasmodium falciparum [6]): > 100 µM
- IC50 [28]: 2 µM
- IC50 [18]: 3 µM
- IC50 [23]: > 100 µM
- IC50 [1]: > 1000 µM
- IC50 [24]: > 100 µM

SMILES: O=c1c(O)ccccc1O
- IC50 [27]: 15 µM
- IC50 (Plasmodium falciparum [6]): 6.4 µM
- MIC (Staphylococcus aureus): 90 µM (≈ 12.4 µg/mL)
- inhibition (Escherichia coli [29]): 100%
- inhibition (Escherichia coli [30]): 8%
- IC50 [28]: 2 µM
- Ki [25]: 23 µM
- IC50 (MRC5): 1.7 µM
- MIC (Aspergillus fumigatus): 730 µM (≈ 101 µg/mL)
- IC50 (Plasmodium falciparum [9]): 8.7 µM
- MIC (Pseudomonas aeruginosa): 700 µM (≈ 96.7 µg/mL)
- MIC (Escherichia coli [31]): 45 µM (≈ 6.22 µg/mL)
- MIC (Micrococcus luteus): 90 µM (≈ 12.4 µg/mL)
- inhibition (Escherichia coli [32]): 78%
- MIC (Klebsiella pneumoniae): 360 µM (≈ 49.7 µg/mL)
- IC50 (B16 [7]): 2.2 µM
- Ki [26]: 16 µM
- IC50 [1]: 75 µM

SMILES: CO[C@@]12[C@H](COC(N)=O)C3=C(C(=O)C(C)=C(N)C3=O)N1C[C@@H]1N[C@@H]12 [MITOMYCIN]
- MST (B16 [33]): 27 days

- IC50 [2]: 900 µM
- IC50 [3]: 0.15 µM
- IC50 [4]: 52 µM
- IC50 [5]: 1.7 µM
SMILES: CC(=O)Nc1ccc(-c2cc(-c3ccc(NC(C)=O)cc3)c(O)c(=O)c(O)c2O)cc1

- MIC [15]: 50 µM (≈ 8.21 µg/mL)
- MIC [17]: 70 µM (≈ 11.5 µg/mL)
- MIC (Poria): 10 µM (≈ 1.64 µg/mL)
- MIC (Coniophora puteana): 10 µM (≈ 1.64 µg/mL)
- MIC [21]: 50 µM (≈ 8.21 µg/mL)
SMILES: CC(C)c1ccc(O)c(=O)cc1 [GAMMA-THUJAPLICIN]

SMILES: O=c1c(O)cccc(O)c1O
- IC50 [2]: 20 µM
- IC50 [27]: 60 µM
- IC50 (B16 [34]): 90 µM
- IC50 [28]: 3 µM
- inhibition (Escherichia coli [35]): 2%
- IC50 (B16 [36]): 60 µM
- IC50 [3]: 40 µM
- IC50 [4]: 3.2 µM
- MST (B16 [37]): 12 days
- IC50 [38]: 0.3 µM
- IC50 (B16 [39]): 70 µM
- inhibition (Escherichia coli [40]): 54%
- IC50 (B16 [7]): 0.26 µM
- IC50 [5]: 11 µM
- IC50 [1]: 8 µM
- MST (B16 [41]): 29 days

- IC50 [2]: > 1000 µM
- IC50 [3]: > 1000 µM
- IC50 [4]: 30 µM
SMILES: CC(=O)Oc1cccc(OC(C)=O)c(=O)c1OC(C)=O

- IC50 [19]: 2.5 µM
- IC50 [20]: 0.41 µM
SMILES: NCc1ccc(-c2ccc(Cc3cc(=O)n(O)c4ncccc34)cc2)cc1
- inhibition at 10 µM (Hepatitis B virus [42]): 93%
